For one assay, the target named is T1, HLA A2 (Homo sapiens, UniProt P04439, D140Y/D185E/D98H/E176V/E277Q/G131W/G231S/I119V/I121R/I166T/I218V/L300P/L318F/N151K/N90K/P208A/P217A/Q86G/Q94H/R138H/R169H/T345S).
T1 construct: T2 cells (TAP deficient HLA A2^+) were incubated overnight in serum-free media; endogenous in cells; host or cells: T2 cells
The assay is classed as binding.

In a further assay the test system is MM909.24 TIL. The assay can be described thus: Intracellular cytokine staining (IFNγ) of TIL infusion product. The assay is classed as cell-based, human. The settings on record: T2 cells as antigen presenting cells, 5 h, peptide 10^−5-10^−12 M. The procedure:
Cells were then washed and stained with violet Live/Dead fixable dead cell stain, VIVID (Life Technologies, Paisley, UK) and for surface markers with anti-CD3 peridinin chlorophyll protein (PerCP) (clone BW264/56, Miltenyi Biotech, Bergisch Gladbach, Germany) and anti-CD8 allophycocyanin (APC)-Vio770 (clone BW135/80, Miltenyi Biotech) antibodies. Cells were prepared for ICS by incubating with Cytofix/Cytoperm™ (BD Biosciences), according to manufacturer's instructions, before staining for 20 min on ice with anti-IFNγ APC antibody (clone 45-15, Miltenyi Biotech). Cells were resuspended in FACS buffer (PBS supplemented with 2% FBS) before acquisition on BD FACS Canto II (BD Biosciences). Data was analysed using FlowJo Software (TreeStar, Ashland, OR, USA).

The next assay deals with CD8 T-cell clone ST8.24. The assay can be described thus: Peptide activation assay, MIP-1β ELISA. The assay is classed as cell-based, human. To be noted: overnight, T2 cells, peptide titration. On the procedure: T-cell clones were cultured in R5 for 24 h prior to assay to reduce spontaneous activation. Assays were performed overnight in R5 in 96 U well plates with 3 × 10^5 T-cells and 6 × 10^5 T2 cells with and without desired peptides. The following day, supernatants were harvested, diluted with 70 μL R0 (R10 but without serum) and a half-area-well MIP-1β Enzyme-linked Immunosorbent Assay (ELISA) was carried out as per the manufacturer's instructions (R&D Systems, Minneapolis, MN). A decamer combinatorial peptide library (Pepscan Presto BV, Lelystad, The Netherlands) was stored and used as previously described ([19]). Individual peptides were synthesised to ≥95% purity (GL Biochem, Shanghai, China, or Peptide Protein Research Ltd, Hampshire, UK) stored at −80°C. […] Polyclonal T-cell populations were cultured overnight in R5 in order to reduce spontaneous activation. The following day an IFNγ Enzyme-Linked ImmunoSpot (ELISpot) assay was performed, using Multiscreen plates® (Millipore, Massachusetts, MA) as per the manufacturers' instructions (Mabtech, Nacka Strand, Sweden). 5 × 10^4 T-cells were screened against 10 candidate super-agonist peptides (described previously) at a concentration range of 10^−4 to 10^−8 mM. ELISpot data was collected using an ImmunoSpot® plate reader (CTL, Shaker Heights, Ohio, OH).

Assay [1] relates to CD8 T-cells of healthy donors. To be noted: cited from earlier work. An excerpt: Analysis of T-cells that responded to autologous tumour within the TIL infusion product used to cure an HLA A2^+ stage IV melanoma patient (code MM909.24), and also in the blood 6 months post cure, identified several persistent TCR clonotypes ([16], [17]). […] […]. Alteration of TCR contact residues has the advantage that the resultant APL are highly likely to be viewed as “nonself” and may therefore have increased potential for breaking immune tolerance. […]. PS-CPL have been explored as a way of selecting such “mimitopes” ([19], [33], [50]). This approach ...

Where “and” joins values, the source holds several entries; their conditions need not be identical. Equal entries are not always repeated.

As for HPVGEADYFEY, at HLA A2, the “MFI of HLA A2 expression” value is 183 and 202 and 199 and 159 and 231.
As to “FATGIGIITV [super-agonist peptide of clone MEL5 from the authors' previous work]”, the “IFNγ production by TIL infusion product” value with MM909.24 TIL is listed as “failed to induce IFNγ production”. Also, the “activation of clone ST8.24 (MIP-1β ELISA)” value in the assay with CD8 T-cell clone ST8.24 is “failed to activate”. For the same sequence, in assay [1], the “healthy donors in which the peptide induced greater CD8 T-cell responses” value is 6 of 10.
On to DRASFIKNL, for which, on HLA A2, the “MFI of HLA A2 expression” value was 197 and 191 and 182 and 211 and 183 and 188.

Source of the values: paper PMC6425991, “Peptide Super-Agonist Enhances T-Cell Responses to Melanoma” (Frontiers in Immunology, 2019).
